# Measurements from ChEMBL document CHEMBL1201862, “PubChem BioAssay data set” (2004).
# Calls of active or inactive are those of the source.
# Key:
# [1] = target: Induced myeloid leukemia cell differentiation protein Mcl-1 (Homo sapiens, UniProt Q07820); type: functional
# [2] = target: T1, High affinity choline transporter 1 (Homo sapiens, UniProt Q9GZV3); assay: CHT inhibitors, dose response, cell-based, 5-point CRC, membrane potential dye (AID 504840); type: functional
# T1 sequence (Q9GZV3 whole entry): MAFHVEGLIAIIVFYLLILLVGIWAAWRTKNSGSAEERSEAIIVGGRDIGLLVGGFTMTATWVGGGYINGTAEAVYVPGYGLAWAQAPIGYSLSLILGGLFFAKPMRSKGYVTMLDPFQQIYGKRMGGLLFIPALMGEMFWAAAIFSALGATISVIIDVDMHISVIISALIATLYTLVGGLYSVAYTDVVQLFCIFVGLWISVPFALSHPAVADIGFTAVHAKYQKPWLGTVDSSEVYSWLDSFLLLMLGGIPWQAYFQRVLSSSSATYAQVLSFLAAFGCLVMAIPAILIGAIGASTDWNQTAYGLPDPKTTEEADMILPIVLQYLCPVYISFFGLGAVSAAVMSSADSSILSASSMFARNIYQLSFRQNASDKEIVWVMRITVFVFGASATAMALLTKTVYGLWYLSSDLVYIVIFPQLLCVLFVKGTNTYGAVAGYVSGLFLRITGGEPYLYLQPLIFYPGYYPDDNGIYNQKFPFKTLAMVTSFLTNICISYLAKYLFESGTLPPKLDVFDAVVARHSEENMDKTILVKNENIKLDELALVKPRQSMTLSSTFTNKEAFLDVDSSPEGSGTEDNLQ
# [3] = THP-1 cell cytotoxicity, dose response, cytotoxicity control for non-replicating M. tuberculosis project (AID 489025); type: functional
# [4] = Vero E6 cell cytotoxicity, dose response, cytotoxicity control for non-replicating M. tuberculosis project, secondary assay (AID 492998); type: functional, VeroE6; details: Vero C1008
# cells = type: functional
# INS1 = assay: beta cell apoptosis inhibitors, cytokine rescue, dose response, luminescence, retest (AID 449756); type: functional, cell-based; details: Rattus norvegicus;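 further: cell death triggered by IL-1 beta plus TNF-alpha plus IFN-gamma mixture; protective hits raise ATP signal compared with cytokine alone wells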
# [5] = target: T2, Carboxy-terminal domain RNA polymerase II polypeptide A small phosphatase 1 (Homo sapiens, UniProt Q9GZU7); assay: inhibitors of CTDSP1, concentration-response testing, biochemical assay, absorbance-based, actives from ultra-high-throughput screening (AID 540297); type: functional
# T2 sequence (Q9GZU7 whole entry): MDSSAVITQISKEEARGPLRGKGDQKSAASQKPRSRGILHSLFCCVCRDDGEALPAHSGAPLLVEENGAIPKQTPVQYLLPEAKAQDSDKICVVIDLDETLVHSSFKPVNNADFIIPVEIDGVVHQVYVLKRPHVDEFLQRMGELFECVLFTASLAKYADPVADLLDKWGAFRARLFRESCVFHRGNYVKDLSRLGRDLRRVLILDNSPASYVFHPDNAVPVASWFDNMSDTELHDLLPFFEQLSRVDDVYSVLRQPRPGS
# [6] = target: T3, Low molecular weight phosphotyrosine protein phosphatase (Homo sapiens, UniProt P24666); type: functional; details: read-out: IC50_Mean;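 further: Dose-response confirmation assay measuring inhibition of LMPTP enzyme activity by fluorescence intensity read-out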
# T3 sequence (P24666 whole entry): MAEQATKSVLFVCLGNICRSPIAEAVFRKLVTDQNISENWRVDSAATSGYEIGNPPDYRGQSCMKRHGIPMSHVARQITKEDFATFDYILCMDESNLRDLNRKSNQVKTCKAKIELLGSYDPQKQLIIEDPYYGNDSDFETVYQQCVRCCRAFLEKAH
# [7] = Luminescence Cell-Based Dose Confirmation HTS to Identify Activators of 5'UTR Stem-Loop Driven Alpha-Synuclein mRNA Translation in H4 Neuroglioblastoma Cells. [Related pubchem assays: 1829 (Project Summary), 1814 (Primary HTS)]; type: functional
# [8] = Luminescence Cell-Based Dose Response HTS to Identify Activators of Luciferase Translation or Activity in H4 […] Cells. [Related pubchem assays: 1829 (Project Summary), 1814 (Primary HTS)]; type: functional
# H4 = assay: Luminescence Cell-Based Dose Response HTS to Identify Activators of 5'UTR Stem-Loop Driven Prion Protein mRNA Translation in H4 Neuroglioblastoma Cells. [Related pubchem assays: 1829 (Project Summary), 1814 (Primary HTS)]; type: functional; details: Homo sapiens
# [9] = M. tuberculosis H37Rv growth inhibitors, H37Rv strain (AID 1626); type: functional
# [10] = target: Voltage-dependent T-type calcium channel subunit alpha-1H (Homo sapiens, UniProt O95180); type: functional;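 further: channel activity triggered by adding a high calcium stimulation buffer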
# Chain of Voltage-dependent T-type calcium channel subunit alpha-1H (O95180 whole entry): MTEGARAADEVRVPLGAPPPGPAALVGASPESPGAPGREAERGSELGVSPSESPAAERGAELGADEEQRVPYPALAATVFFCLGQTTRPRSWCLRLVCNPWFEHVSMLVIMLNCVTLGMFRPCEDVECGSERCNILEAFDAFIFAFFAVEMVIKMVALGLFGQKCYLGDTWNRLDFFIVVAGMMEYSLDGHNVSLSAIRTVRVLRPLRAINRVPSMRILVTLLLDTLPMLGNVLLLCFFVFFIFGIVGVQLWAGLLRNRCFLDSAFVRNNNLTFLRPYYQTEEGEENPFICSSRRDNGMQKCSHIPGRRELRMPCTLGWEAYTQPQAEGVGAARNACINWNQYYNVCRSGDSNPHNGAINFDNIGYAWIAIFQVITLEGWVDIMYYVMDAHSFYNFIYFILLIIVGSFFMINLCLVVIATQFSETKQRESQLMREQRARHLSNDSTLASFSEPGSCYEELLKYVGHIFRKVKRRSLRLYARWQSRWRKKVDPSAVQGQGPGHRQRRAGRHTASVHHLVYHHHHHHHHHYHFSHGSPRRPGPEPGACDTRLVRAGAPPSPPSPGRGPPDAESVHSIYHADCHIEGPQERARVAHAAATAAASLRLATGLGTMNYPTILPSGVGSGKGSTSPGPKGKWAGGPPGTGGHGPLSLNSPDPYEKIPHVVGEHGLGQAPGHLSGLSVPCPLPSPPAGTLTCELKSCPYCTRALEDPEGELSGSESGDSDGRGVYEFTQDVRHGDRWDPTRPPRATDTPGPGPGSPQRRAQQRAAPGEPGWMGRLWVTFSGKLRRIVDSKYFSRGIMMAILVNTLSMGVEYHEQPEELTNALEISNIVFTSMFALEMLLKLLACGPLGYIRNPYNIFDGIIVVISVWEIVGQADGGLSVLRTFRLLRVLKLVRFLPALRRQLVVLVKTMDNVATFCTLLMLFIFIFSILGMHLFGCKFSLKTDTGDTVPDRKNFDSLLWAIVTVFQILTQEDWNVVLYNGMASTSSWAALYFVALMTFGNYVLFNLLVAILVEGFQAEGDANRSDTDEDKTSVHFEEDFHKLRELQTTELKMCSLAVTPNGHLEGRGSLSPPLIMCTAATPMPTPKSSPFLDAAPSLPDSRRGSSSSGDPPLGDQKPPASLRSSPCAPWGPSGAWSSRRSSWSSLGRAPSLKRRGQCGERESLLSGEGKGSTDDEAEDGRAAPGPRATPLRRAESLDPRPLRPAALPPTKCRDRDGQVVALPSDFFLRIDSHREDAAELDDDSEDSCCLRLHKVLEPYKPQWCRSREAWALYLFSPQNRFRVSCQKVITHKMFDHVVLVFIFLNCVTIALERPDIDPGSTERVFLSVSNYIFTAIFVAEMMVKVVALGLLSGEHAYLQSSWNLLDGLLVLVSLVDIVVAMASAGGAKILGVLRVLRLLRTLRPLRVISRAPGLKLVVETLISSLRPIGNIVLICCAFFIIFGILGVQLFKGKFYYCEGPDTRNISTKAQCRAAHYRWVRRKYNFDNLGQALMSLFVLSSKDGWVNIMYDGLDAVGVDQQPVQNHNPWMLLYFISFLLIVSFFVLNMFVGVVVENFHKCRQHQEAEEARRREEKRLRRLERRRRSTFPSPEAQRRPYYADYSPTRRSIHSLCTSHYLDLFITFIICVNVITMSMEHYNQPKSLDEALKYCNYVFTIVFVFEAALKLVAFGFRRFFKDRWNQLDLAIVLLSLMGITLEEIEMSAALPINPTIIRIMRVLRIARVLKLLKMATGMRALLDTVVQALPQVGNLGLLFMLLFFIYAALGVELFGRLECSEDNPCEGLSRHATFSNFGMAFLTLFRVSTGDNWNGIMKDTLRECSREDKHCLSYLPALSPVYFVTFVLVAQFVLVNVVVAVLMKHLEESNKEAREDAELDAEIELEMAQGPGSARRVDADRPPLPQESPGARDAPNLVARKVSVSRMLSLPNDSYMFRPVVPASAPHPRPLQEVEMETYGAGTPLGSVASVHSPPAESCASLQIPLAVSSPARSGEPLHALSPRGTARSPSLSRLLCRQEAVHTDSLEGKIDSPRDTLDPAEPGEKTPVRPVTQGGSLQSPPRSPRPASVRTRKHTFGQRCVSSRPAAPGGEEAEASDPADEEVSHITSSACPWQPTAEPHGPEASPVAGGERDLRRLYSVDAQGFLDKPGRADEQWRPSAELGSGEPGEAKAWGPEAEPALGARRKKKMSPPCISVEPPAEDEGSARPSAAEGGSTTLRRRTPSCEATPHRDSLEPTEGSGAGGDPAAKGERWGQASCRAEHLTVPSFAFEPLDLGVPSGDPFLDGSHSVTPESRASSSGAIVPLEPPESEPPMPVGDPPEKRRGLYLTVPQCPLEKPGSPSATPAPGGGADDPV
# [11] = target: T4, Polyadenylate-binding protein 1 (Homo sapiens, UniProt P11940); assay: PABP1 MLLE–PAM2 interaction inhibitors, dose response, miRNA deadenylation inhibitor project, biochemical, fluorescence polarization, Cy5-PAM2 peptide, secondary (AID 602260); type: functional; details: read-out: IC50_Mean
# T4 sequence (P11940 whole entry): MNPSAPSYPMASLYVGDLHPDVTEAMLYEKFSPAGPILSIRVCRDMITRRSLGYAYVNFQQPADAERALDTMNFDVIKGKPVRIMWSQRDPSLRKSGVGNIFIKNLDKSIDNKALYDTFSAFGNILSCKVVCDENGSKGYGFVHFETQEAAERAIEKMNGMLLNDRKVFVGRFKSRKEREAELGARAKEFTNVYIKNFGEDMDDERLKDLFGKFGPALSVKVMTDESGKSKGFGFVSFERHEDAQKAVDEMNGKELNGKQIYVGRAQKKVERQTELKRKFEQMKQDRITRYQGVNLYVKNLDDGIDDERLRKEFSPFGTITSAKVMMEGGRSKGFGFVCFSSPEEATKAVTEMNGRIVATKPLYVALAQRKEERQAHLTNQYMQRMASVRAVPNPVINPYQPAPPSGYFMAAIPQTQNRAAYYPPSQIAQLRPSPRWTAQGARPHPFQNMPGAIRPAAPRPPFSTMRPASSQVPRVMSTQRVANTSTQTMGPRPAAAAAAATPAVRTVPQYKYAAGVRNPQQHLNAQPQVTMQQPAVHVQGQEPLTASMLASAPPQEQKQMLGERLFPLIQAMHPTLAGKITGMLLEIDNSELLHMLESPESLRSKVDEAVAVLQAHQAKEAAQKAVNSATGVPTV
# [12] = target: T4, Polyadenylate-binding protein 1; assay: PABP1 MLLE–PAM2 binding inhibitor potency, dose response, biochemical, fluorescence polarization, FITC-PAM2 peptide (AID 602259); type: functional; details: read-out: IC50_Mean
# [13] = target: T5, DNA repair and recombination protein RAD54-like (Homo sapiens, UniProt Q92698); assay: inhibitors of human RAD54 branch migration, confirmation, biochemical, fluorescence, cherry-picked samples, dose series (AID 651657); type: functional
# T5 sequence (Q92698 whole entry): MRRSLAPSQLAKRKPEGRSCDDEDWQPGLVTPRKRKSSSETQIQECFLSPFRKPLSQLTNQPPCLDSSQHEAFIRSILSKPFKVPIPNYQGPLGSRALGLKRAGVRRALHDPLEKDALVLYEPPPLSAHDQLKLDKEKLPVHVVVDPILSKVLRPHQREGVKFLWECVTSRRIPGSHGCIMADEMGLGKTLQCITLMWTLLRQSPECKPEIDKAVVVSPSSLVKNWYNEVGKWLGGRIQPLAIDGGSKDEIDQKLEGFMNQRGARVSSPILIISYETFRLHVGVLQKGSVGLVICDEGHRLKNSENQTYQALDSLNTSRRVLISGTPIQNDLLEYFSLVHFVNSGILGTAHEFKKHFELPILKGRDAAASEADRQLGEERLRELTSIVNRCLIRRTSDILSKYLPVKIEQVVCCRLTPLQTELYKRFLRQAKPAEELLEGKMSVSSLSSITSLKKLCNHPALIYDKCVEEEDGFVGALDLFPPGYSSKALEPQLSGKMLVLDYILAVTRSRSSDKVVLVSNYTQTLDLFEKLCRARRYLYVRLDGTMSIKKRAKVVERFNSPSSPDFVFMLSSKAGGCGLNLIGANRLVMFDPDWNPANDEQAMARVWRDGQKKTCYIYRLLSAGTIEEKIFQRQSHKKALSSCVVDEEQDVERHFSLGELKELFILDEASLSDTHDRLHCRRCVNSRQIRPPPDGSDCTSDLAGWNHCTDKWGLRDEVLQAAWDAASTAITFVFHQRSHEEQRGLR
# [14] = system: Streptococcus sp. 'group A'; assay: growth inhibition of control SK(-) GAS strain, dose response, counter-screen for streptokinase expression inhibitor project, luminescence, kanamycin, BacTiterGlo, confirmation (AID 1900); type: functional, organism-based
# Streptokinase A = target: T6, Streptokinase A (Streptococcus pyogenes serotype M1, UniProt P10520); assay: S. pyogenes streptokinase expression inhibitors, potency, dose response, plasminogen activation absorbance, OD405 (AID 1914); type: functional, Streptococcus pyogenes M1 GAS;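 further: secreted streptokinase activity via plasminogen activation per viability signal from cell pellet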
# T6 sequence (P10520 whole entry): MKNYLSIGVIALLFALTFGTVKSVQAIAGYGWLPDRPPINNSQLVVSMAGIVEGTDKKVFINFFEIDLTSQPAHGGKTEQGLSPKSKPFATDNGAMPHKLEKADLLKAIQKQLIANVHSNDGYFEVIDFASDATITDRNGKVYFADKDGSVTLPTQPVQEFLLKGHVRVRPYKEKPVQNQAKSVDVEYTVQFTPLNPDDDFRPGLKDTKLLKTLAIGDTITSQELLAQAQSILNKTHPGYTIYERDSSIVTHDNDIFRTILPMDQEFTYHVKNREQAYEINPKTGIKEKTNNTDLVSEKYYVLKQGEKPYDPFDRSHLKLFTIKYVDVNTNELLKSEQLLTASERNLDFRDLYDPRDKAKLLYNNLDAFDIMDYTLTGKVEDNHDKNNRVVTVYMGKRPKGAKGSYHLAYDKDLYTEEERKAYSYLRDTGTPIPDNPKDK
# Streptococcus = assay: Group A Streptococcus viability loss, dose response, counter-screen for streptokinase expression inhibitor project, luminescence, BacTiterGlo (AID 1915); type: functional, organism-based;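 further: potency for reduction of bacterial viability or growth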
# H9c2 = assay: cells; type: functional, cell-based; details: Rattus norvegicus, H9c2, Myocardium;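 further: confirmatory concentration-response retest of ultra-high-throughput screening hits for modulation of myocardial damage; cell death induced by hydrogen peroxide oxidative stress; compound pretreatment for 60 min then peroxide exposure for 2 h; potency is for protecting the cells against peroxide damage rather than for killing them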
# Chain of Induced myeloid leukemia cell differentiation protein Mcl-1 (Q07820 whole entry): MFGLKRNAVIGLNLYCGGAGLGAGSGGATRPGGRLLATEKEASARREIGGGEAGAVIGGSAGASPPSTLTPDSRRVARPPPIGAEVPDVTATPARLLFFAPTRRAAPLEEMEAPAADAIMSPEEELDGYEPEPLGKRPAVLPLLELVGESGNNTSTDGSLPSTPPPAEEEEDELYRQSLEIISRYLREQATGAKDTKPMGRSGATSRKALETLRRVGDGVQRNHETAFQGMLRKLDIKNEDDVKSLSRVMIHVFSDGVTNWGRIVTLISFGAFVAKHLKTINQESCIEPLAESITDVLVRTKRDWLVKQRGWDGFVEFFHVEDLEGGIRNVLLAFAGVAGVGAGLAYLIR
structure (smiles),measurement,setting,value
O=C(O)CSc1cc(C(=O)c2cc(F)ccc2O)cn2c(=O)c3c(-c4ccccc4)csc3nc12,IC50,[1],2.79 µM (active)
same,IC50,[2],16.6 µM (active)
CCn1c(NC(=O)c2ccccc2)nc2ccccc21,CC50,[3],> 40 µM (active)
same,CC50,[4],19.6 µM (active)
same,IC50,cells,1.94 µM (active)
Cc1csc2nc(NC(=O)c3ccccc3)sc(=O)c12,AC50,INS1,> 260 µM (inactive)
same,IC50,[5],7.03 µM (active)
same,IC50,[6],29.8 µM (inactive)
Cn1cnnc1SCc1ccc(-c2ccc(Br)cc2)o1,EC50,[7],20.7 µM (active)
same,EC50,[8],21.2 µM (active)
same,EC50,H4,22.2 µM (active)
same,IC50,[9],> 100 µM (active)
CCCn1c2ccccc2c2cnn(CC(=O)NCCCN3CCCCC3CC)c(=O)c21 (stereo not given),IC50,[2],13.6 µM (active)
CCN(Cc1ccccc1)C(c1ccccn1)c1nnnn1C1CCCCC1 (stereo not given),EC50,[10],3.93 µM (active)
O=C(CCN1CCOCC1)NNC(=S)NC(=O)c1ccccc1,IC50,[11],> 66 µM (inactive)
same,IC50,[12],> 66 µM (inactive)
COc1cccc(N2CCN(C(=O)C3CCCN(c4ncnc5c4nc4n5CCCCC4)C3)CC2)c1 (stereo not given),IC50,[2],16.6 µM (active)
CCOc1cc2[nH]c(=O)n(Cc3ccc(C(=O)NCCCN4CCC(C)CC4)cc3)c(=O)c2cc1OCC,AC50,[13],55.9 µM (active)
CCCNC(=O)NCCc1c(C)[nH]c2ccccc12,IC50,[11],> 66 µM (inactive)
same,IC50,[12],45.9 µM (inactive)
Cc1[nH]c2ccccc2c1C(=O)CN1CCCC(C)C1 (stereo not given),IC50,[2],15.8 µM (active)
Cc1cccc(NC(=O)COc2ccc(/C=C\c3nc(O)nc(O)c3[N+](=O)[O-])cc2)c1,IC50,[5],1.78 µM (active)
same,IC50,[6],80 µM (inactive)
O=C(N=Nc1c(O)[nH]c2ccc(F)cc12)c1ccc(NS(=O)(=O)c2cccs2)cc1,IC50,[6],80 µM (inactive)
O=C(OCc1nc2ccccc2s1)c1cccs1,EC50,[10],12.2 µM (active)
Cn1cc(C(=O)c2ccc(Cl)cc2Cl)cc1C(=O)NN=C(N)COc1cccc(C(F)(F)F)c1,EC50,[14],2.31 µM (active)
same,EC50,Streptokinase A,133 µM (active)
same,EC50,Streptococcus,> 150 µM (not active)
same,EC50,[10],2.61 µM (active)
Cc1cccn2c(=O)c3cc(C(=O)NCC4CCCO4)c(=N)n(C4CCCCC4)c3nc12 (stereo not given),AC50,[13],56 µM (active)
Cc1cccc(-c2noc(CN(C(=O)c3ccc4c(c3)OCO4)C(C)C)n2)c1,EC50,[10],8.31 µM (active)
N=c1n(CCN2CCCC2)c2ccccc2n1CC(O)c1ccco1 (stereo not given),IC50,[11],> 66 µM (inactive)
same,IC50,[12],> 66 µM (inactive)
COc1ccccc1C(CNC(=O)c1cccc(NS(=O)(=O)c2ccc(C)c(F)c2)c1)N1CCCC1 (stereo not given),IC50,[2],12.5 µM (active)
CCC(C)(C)n1nnnc1C(c1ccc(C)cc1)N1CCN(Cc2ccc3c(c2)OCO3)CC1 (stereo not given),EC50,[10],6.68 µM (active)
CCCc1nc2c(C)cc(Br)cn2c1Cc1ccsc1,IC50,[11],35.7 µM (inactive)
same,IC50,[12],41.9 µM (inactive)
COc1cccc(/C=N/NC(=O)c2ccncc2)c1OC(=O)c1ccc(Br)cc1,IC50,H9c2,12.8 µM (active)
same,IC50,[11],> 66 µM (inactive)
same,IC50,[12],25.1 µM (inactive)
